# Experimental data from article PMC12636026 (Journal of the American Chemical Society, 2025).
# “Also recorded” adds a separate entry of the source. Bridges are numbered along the chain shown (N, C = ends). Roman numbers before positions name the chains, in order.
# Tests used:
# [1] = system: trypsin; test: 12 µM trypsin (bovine pancreas) in 100 mM HEPES buffer pH 7.5; conditions: 37°C, up to 48 h
# [2] = Zn(II)/phosphate challenge, relaxivity, 2.5 mM complex and 2.5 mM Zn(II); ref Laurent et al.; cited from earlier work
# Description: The stability of MRI contrast agents is often benchmarked by the “ratio index”, defined as the time for the relaxation value to drop to 80% of its initial value under Zn(II)/phosphate challenge. […] Laurent et al. monitored complex integrity using relaxivity under equimolar condi ...
# [3] = clinical agent; ref citation number not given; cited from earlier work
# Description: These findings advance our understanding of ligand suitability in MRI contrast agent design and illustrate the potential of metallo-coiled coils to surpass the performance limits of traditional inorganic complexes. By exploiting the modular natur ...
# [4] = Native mass spectrometry metalation; assay type: binding; conditions: 10 μM trimer : 10 μM metal, 50 mM ammonium acetate pH 6.8, room temperature, 60 min
# Description: This preserves noncovalent interactions enabling coiled coil complexes to be detected. […] (C) Representative full Tb(III) emission spectra for each titration point. λex = 280 nm. […] Error bars determined from standard deviation error of three independent repeat experiments. […] page 4: […] Upon successful purification, removal of Tb(III) was confirmed on a small aliquot of cross-linked peptide by fluorescence spectroscopy. Here the absence of enhanced/sensitized Tb(III) emission, at 545 nm, is consistent with complete […] Stock solutions preparation: In all experiments, the concentration of peptide stock […] Once samples were prepared, the concentration of the solutions were checked by UV vis and adjust if necessary. All GdCl3 and TbCl3 stock solutions were freshly […] solutions were also freshly prepared and determined in a similar fashion using EDTA and xylenol orange indicator solution.6 The equivalence of metal added was then adjust to the exact concentration of peptide in the sample. […] in volumetric glassware using MilliQ water. Native mass spectrometry (MS): […] ammonium acetate pH 6.8. The concentrations of the peptides were measured using the […] Metal stock solutions were initially prepared by […] These stock solutions were then […] […] The observed molecular weights were calculated from an average of 3 charge states. […]
# [5] = molecular target: T1, trypsin (bovine pancreas) (Bos taurus, UniProt P00760); test: in vitro; assay type: in vitro ADME; conditions: 100 µM, 12 μM trypsin, 100 mM HEPES pH 7.5, 37 °C, HPLC
# T1 construct: from tissue; host or cells: bovine pancreas
# T1 sequence (P00760 24-246): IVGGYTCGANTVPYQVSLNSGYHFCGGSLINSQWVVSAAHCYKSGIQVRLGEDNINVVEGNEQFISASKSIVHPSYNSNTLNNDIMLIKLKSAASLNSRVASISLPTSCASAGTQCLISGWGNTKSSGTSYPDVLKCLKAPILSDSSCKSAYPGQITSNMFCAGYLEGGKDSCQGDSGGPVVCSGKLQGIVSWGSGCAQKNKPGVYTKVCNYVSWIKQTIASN
# Procedure: (§1) page 8: determined as reported periously10 at the data was fitted to the Hills equation using MatLab.11 Stability Studies: Zinc transmetallation experiments: Emission spectra of Tb(III) were recorded for 1.0 µM […] Zinc chloride (ZnCl₂) was then added to each cuvette to give a final concentration of 125 µM Zn(II), and the fluorescence emission spectra were subsequently collected over time. The Tb(III) emission for each sample was normalized to the integrated intensity of the 545 nm emission peak from the initial spectrum. Phosphate and HEPES: Emission spectra of Tb(III) were recorded for 1.0 µM solutions of […] Phosphate buffer prepared from a mixture of sodium monobasic and tribasic phosphate salts (to give a stock concentration of 100 mM at pH 7.0) […] Fluorescence emission spectra were subsequently collected over time. The Tb(III) emission for each sample was normalized to the integrated intensity of the 545 nm emission peak from the initial spectrum. A control was carried out using the same methodology, this time monitoring the change in Tb emission upon the addition of HEPES buffer instead of phosphate. Protease experiments: A trypsin (bovine pancreas) stock solution was prepared (1.5 mg/mL) by dissolving in 100 mM HEPES at pH 7.5. The peptide stock solution was prepared by dissolving the lyophilized peptide in the same buffer solution, and the concentration determined as reported previously. In the case when the peptide was metalated, samples were left to equilibrate with the metal upon addition for around 60 min. prior to the addition of the trypsin. Samples were left to incubate in a water bath at 37°C. At specific time points, 35 µl of each sample were taken and quenched with 35 µl of 4% TFA solution. […] Individual peaks from the HPLC were collected and then analyzed by ESI mass spectrometry in positive mode. Samples were ionised using nanoelectrospray ionisation (TriVersa NanoMate, Advion Interchim Scientific, […] 8 page 27: Figure S14: […] Figure S14: […] pancreas) and 100 mM HEPES buffered at pH 7.5. […] monitored. 27 (1 picture or pasted object on this page, not shown here) page 28: Figure S15: […] Figure S15: […] pancreas) and 100 mM HEPES buffered at pH 7.5. […] monitored. 28 (1 picture or pasted object on this page, not shown here)
# [6] = system: T2, trypsin (bovine pancreas); test: in vitro; assay type: in vitro ADME; conditions: isolated enzyme trypsin, 100 µM, 12 μM trypsin, 100 mM HEPES pH 7.5, 37 °C, HPLC, trimers lacking C-terminal G-NH2 or Ac-G IAAIEQK counted
# T2 construct: from tissue; host or cells: bovine pancreas
# Procedure: as §1
# [7] = Circular dichroism folding (% folded from ellipticity at 222 nm); assay type: physicochemical; conditions: CD 222 nm, no metal, 10 mM HEPES pH 7.0, 293 K, triplicate
# [8] = Kinetics of Tb(III) binding and coiled coil folding (CD 222 nm / Tb emission 545 nm); assay type: physicochemical; conditions: 0.1, 1.0 and 10 μM, 10 mM HEPES pH 7.0, 1.0 equiv TbCl3
# [9] = CD thermal unfolding; assay type: physicochemical; conditions: apo, 10 μM, 10 mM HEPES pH 7.0, CD 222 nm
# Procedure: 2 (A) CD spectra of 0.1 μM and (B) 10 μM KH2-20X and MB1-2 trimers in the absence (apo; KH2-20X, orange; MB1-2, blue) and presence (holo; KH2-20X + TbCl3, red; MB1-2 + TbCl3, turquoise) of 1.0 equiv of TbCl3, recorded at 293 K. (C) CD thermal unfolding profiles of 10 μM trimers monitoring the molar ellipticity at 222 nm: apo MB1-2 (blue), Tb(MB1-2)3 (turquoise), apo KH2-20X (orange), and Tb(KH2-20X) (red). Solid lines indicate forward heating, and dotted lines indicate reverse cooling. All experiments were conducted in HEPES buffer at pH 7.0, with buffer concentrations adjusted to match peptide concentration (0.1 and 10.0 mM for 0.1 and 10.0 μM peptide, respectively). […]
# 10 µM peptide in 10 mM HEPES, 0.1 mM TbCl₃ into 1 µM peptide in 1 mM HEPES, and 0.01 mM TbCl₃ into 0.1 µM peptide in 0.1 mM HEPES (all at pH 7.0). […] The observed ellipticity was then converted into molar ellipticity, where the helical content was calculated as the percentage folded, based on the theoretical maximum ellipticity at 222 nm as reported by Scholtz et al.9 Thermal unfolding data was recorded by monitoring the ellipticity at 222 nm of a 10 μM trimer concentration of MB1-2 and KH2-20X solution in 10 mM HEPES buffer (pH 7.0) in the absence and presence of 10 μM TbCl3, using a Jasco Peltier Type MPTC-513 temperature controller ramping from 20 °C to 85 °C in 0.1°C increments, heating at 1 °C/min. […]
compound,measurement,setting,value
Ac-G IAAIEQK IAANEWK DAAIEQK IAAIEQK IAAIEQK G-NH2 [MB1-2],cleaved bond,[1],"Lys-I, within 30 min; also recorded: Lys15-D, within 30 min; also recorded: Lys-G, within 30 min"
CNC[C@H](O)[C@@H](O)[C@H](O)[C@H](O)CO.CNC[C@H](O)[C@@H](O)[C@H](O)[C@H](O)CO.O=C([O-])CN(CCN(CC(=O)[O-])CC(=O)O)CCN(CC(=O)[O-])CC(=O)O.[Gd+3] [Magnevist],ratio index (time for relaxation value to drop to 80% of initial value),[2],~250 min
O=C([O-])CN1CCN(CC(=O)[O-])CCN(CC(=O)[O-])CCN(CC(=O)[O-])CC1.[Gd+3] [Gd-DOTA],r 1 relaxivity at 1.5 T,[3],4.3 mM^–1 s^–1
same,r 2 relaxivity at 1.5 T,[3],5.7 mM^–1 s^–1
Ac-G IAAIEQK IAANEWK DAAIXQK IAAIEQK IAAIEQK G-NH2 [KH2-20X],cleaved bond,[1],"Lys-G, major, 30 min; also recorded: Lys-I, 30 min"
same,fragment found,[1],"trimeric cross-linked IAANEWK DAAIEQK (peak 5), 30 min"
same,not cleaved,[1],uncleaved IAANEWK DAAIEQK stretch; individual IAANEWK and DAAIEQK fragments absent
CNC[C@H](O)[C@@H](O)[C@H](O)[C@H](O)CO.O=C([O-])CN1CCN(CC(=O)[O-])CCN(CC(=O)O)CCN(CC(=O)[O-])CC1.[Gd+3] [Dotarem],ratio index (time for relaxation value to drop to 80% of initial value),[2],exceeds 5000 min
"I: Ac-GIAAIEQKIAANEWKDAAIEQKIAAIEQKIAAIEQKG-NH2 / II: Ac-GIAAIEQKIAANEWKDAAIEQKIAAIEQKIAAIEQKG-NH2 / III: Ac-GIAAIEQKIAANEWKDAAIEQKIAAIEQKIAAIEQKG-NH2 (amide I:15-II:20, I:20-III:15, II:15-III:20) [KH2-20X]",% metalation by native mass spectrometry,[4],95–100%
same,"abundance of trimeric cross-linked IAANEWK DAAIEQK fragment at 30 min, apo",[5],5%
same,"abundance of trimeric cross-linked IAANEWK DAAIEQK fragment at 6 h, apo",[5],20%
same,remaining at 0.5 h,"[6]; read-out: % remaining intact as trimers after 30 min trypsin, apo",~74%
same,remaining at 6 h,"[6]; read-out: % remaining intact as trimers after 6 h trypsin, apo",~45%
same,% apo folding (10.0 μM trimer),[7],96 ± 3%
same,rate of Tb(III) binding (sensitized emission 545 nm),[8],rapid across all tested concentrations
same,folding over the temperature range 20-85 °C,[9],remain well-folded throughout the entire temperature range
Ac-G IAAIEQK IAANEWK DAAIEQK IAAIEQK IAAIEQK G-NH2 [Tb(MB1-2)3],cleaved bond,[1],"Lys-G, major"
Ac-G IAAIEQK IAANEWK DAAIXQK IAAIEQK IAAIEQK G-NH2 [Tb(KH2-20X)],cleaved bond,[1],"Lys-G, major; also recorded: Lys-I"
